# BindingDB's records for doi:10.1016/j.bmcl.2006.09.059 (Seoul National University, 2006)
# Target: Transient receptor potential cation channel subfamily V member 1 (Rattus norvegicus, UniProt O35433)
# Experiment: Agonist activity at rat TRPV1 expressed in CHO cells assessed as maximal calcium uptake
# Transient receptor potential cation channel subfamily V member 1, sequence (O35433 whole entry): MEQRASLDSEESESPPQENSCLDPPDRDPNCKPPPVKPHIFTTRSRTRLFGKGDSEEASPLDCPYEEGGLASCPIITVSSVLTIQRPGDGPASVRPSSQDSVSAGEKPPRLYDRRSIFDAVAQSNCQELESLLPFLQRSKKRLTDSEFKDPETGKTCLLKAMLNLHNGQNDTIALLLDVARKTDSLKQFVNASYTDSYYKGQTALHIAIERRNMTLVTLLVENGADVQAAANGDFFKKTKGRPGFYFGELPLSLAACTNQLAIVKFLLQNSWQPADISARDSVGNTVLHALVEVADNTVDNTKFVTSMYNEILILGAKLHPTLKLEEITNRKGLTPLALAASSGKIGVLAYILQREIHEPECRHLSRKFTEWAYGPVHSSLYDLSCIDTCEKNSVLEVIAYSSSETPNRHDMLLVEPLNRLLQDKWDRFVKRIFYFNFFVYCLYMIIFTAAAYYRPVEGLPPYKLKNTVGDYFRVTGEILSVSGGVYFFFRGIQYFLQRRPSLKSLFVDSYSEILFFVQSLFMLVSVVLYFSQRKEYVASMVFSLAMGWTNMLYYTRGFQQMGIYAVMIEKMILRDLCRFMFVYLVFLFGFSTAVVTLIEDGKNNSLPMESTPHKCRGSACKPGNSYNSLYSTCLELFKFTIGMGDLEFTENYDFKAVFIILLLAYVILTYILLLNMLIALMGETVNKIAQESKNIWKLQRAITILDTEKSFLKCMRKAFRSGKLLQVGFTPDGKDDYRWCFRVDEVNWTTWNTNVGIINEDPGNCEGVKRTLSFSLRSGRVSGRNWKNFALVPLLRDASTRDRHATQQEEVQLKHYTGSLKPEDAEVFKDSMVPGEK
smiles,measurement,value
COc1cc(CNC(=S)NC(COC(=O)C(C)(C)C)Cc2ccc(C(C)(C)C)cc2)ccc1O (stereo unspecified) [2-(3-(4-hydroxy-3-methoxybenzyl)thioureido)-3-(4-tert-butylphenyl)propyl pivalate],EC50,5.7 nM
